Assay results as given in US12590067B2, “Herbicidal cyclohexanedione derivatives” (SYNGENTA CROP PROTECTION AG, priority 2019, dated 2026).

Key:
Experiment in all cases: Glasshouse herbicidal test, pre- and post-emergence, percentage damage to the plant
Type in all cases: in vivo
[1] = system: Echinochloa crus-galli (ECHCG); conditions: 250 g/h, evaluated after 13 days; for ECHCG POST percentage damage caused to the plant (five-point scale): post-emergence; for ECHCG PRE percentage damage caused to the plant (five-point scale): pre-emergence
Description: (§1) Seeds of a variety of test species are sown in standard soil in pots (Lolium perenne (LOLPE), Setaria faberi (SETFA), Alopecurus myosuroides (ALOMY), Echinochloa crus-galli (ECHCG), Avena fatua (AVEFA)). After cultivation for one day (pre-emergence) or after 8 days cultivation (post-emergence) under controlled conditions in a glasshouse (at 24/16° C., day/night; 14 hours light; 65% humidity), the plants are sprayed with an aqueous spray solution derived from the formulation of the technical active ingredient in acetone/water (50:50) solution containing 0.5% Tween 20 (polyoxyethelyene sorbitan monolaurate, CAS RN 9005-64-5). Compounds are applied at 250 g/h. The test plants are then grown in a glasshouse under controlled conditions in a glasshouse (at 24/16° C., day/night; 14 hours light; 65% humidity) and watered twice daily. After 13 days for pre and post-emergence, the test is evaluated for the percentage damage caused to the plant. The biological activities are shown in the following table on a five-point scale (5=80-100%; 4=60-79%; 3=40-59%; 2=20-39%; 1=0-19%).

Avena fatua (AVEFA) = conditions: 250 g/h, evaluated after 13 days; for AVEFA POST percentage damage caused to the plant (five-point scale): post-emergence; for AVEFA PRE percentage damage caused to the plant (five-point scale): pre-emergence
Description: as §1

[2] = system: Alopecurus myosuroides (ALOMY); conditions: 250 g/h, evaluated after 13 days; for ALOMY POST percentage damage caused to the plant (five-point scale): post-emergence; for ALOMY PRE percentage damage caused to the plant (five-point scale): pre-emergence
Description: as §1

Setaria faberi (SETFA) = conditions: 250 g/h, evaluated after 13 days; for SETFA POST percentage damage caused to the plant (five-point scale): post-emergence; for SETFA PRE percentage damage caused to the plant (five-point scale): pre-emergence
Description: as §1

Lolium perenne (LOLPE) = conditions: 250 g/h, evaluated after 13 days; for LOLPE POST percentage damage caused to the plant (five-point scale): post-emergence; for LOLPE PRE percentage damage caused to the plant (five-point scale): pre-emergence
Description: as §1

CC#Cc1cc(Cl)c(C2C(=O)CC3(CCN(C(=O)NC(C)(C)C)CC3)CC2=O)c(OC)c1 [Compound A6]
5 (5=80-100%): ECHCG POST percentage damage caused to the plant (five-point scale) [1] | ECHCG PRE percentage damage caused to the plant (five-point scale) [1] | AVEFA POST percentage damage caused to the plant (five-point scale) (Avena fatua (AVEFA)) | AVEFA PRE percentage damage caused to the plant (five-point scale) (Avena fatua (AVEFA)) | ALOMY POST percentage damage caused to the plant (five-point scale) [2] | ALOMY PRE percentage damage caused to the plant (five-point scale) [2] | SETFA POST percentage damage caused to the plant (five-point scale) (Setaria faberi (SETFA)) | SETFA PRE percentage damage caused to the plant (five-point scale) (Setaria faberi (SETFA)) | LOLPE POST percentage damage caused to the plant (five-point scale) (Lolium perenne (LOLPE)) | LOLPE PRE percentage damage caused to the plant (five-point scale) (Lolium perenne (LOLPE))

CC#Cc1cc(C)c(C2C(=O)CC3(CCN(C(C)=O)CC3)CC2=O)c(CC)c1 [Compound A47]
5 (5=80-100%): ECHCG POST percentage damage caused to the plant (five-point scale) [1] | ECHCG PRE percentage damage caused to the plant (five-point scale) [1] | AVEFA POST percentage damage caused to the plant (five-point scale) (Avena fatua (AVEFA)) | AVEFA PRE percentage damage caused to the plant (five-point scale) (Avena fatua (AVEFA)) | ALOMY POST percentage damage caused to the plant (five-point scale) [2] | ALOMY PRE percentage damage caused to the plant (five-point scale) [2] | SETFA POST percentage damage caused to the plant (five-point scale) (Setaria faberi (SETFA)) | SETFA PRE percentage damage caused to the plant (five-point scale) (Setaria faberi (SETFA)) | LOLPE POST percentage damage caused to the plant (five-point scale) (Lolium perenne (LOLPE)) | LOLPE PRE percentage damage caused to the plant (five-point scale) (Lolium perenne (LOLPE))

CC#Cc1cc(Cl)c(C2C(=O)CC3(CCN(C(C)=O)CC3)CC2=O)c(CC)c1 [Compound A49]
5 (5=80-100%): ECHCG POST percentage damage caused to the plant (five-point scale) [1] | ECHCG PRE percentage damage caused to the plant (five-point scale) [1] | AVEFA POST percentage damage caused to the plant (five-point scale) (Avena fatua (AVEFA)) | AVEFA PRE percentage damage caused to the plant (five-point scale) (Avena fatua (AVEFA)) | ALOMY POST percentage damage caused to the plant (five-point scale) [2] | ALOMY PRE percentage damage caused to the plant (five-point scale) [2] | SETFA POST percentage damage caused to the plant (five-point scale) (Setaria faberi (SETFA)) | SETFA PRE percentage damage caused to the plant (five-point scale) (Setaria faberi (SETFA)) | LOLPE POST percentage damage caused to the plant (five-point scale) (Lolium perenne (LOLPE)) | LOLPE PRE percentage damage caused to the plant (five-point scale) (Lolium perenne (LOLPE))

CCc1cc(-c2ccc(C#N)cn2)cc(CC)c1C1C(=O)CC2(CCN(C(=O)C3CC3)CC2)CC1=O [Compound A52]
5 (5=80-100%): ECHCG POST percentage damage caused to the plant (five-point scale) [1] | ECHCG PRE percentage damage caused to the plant (five-point scale) [1] | AVEFA POST percentage damage caused to the plant (five-point scale) (Avena fatua (AVEFA)) | AVEFA PRE percentage damage caused to the plant (five-point scale) (Avena fatua (AVEFA)) | ALOMY POST percentage damage caused to the plant (five-point scale) [2] | ALOMY PRE percentage damage caused to the plant (five-point scale) [2] | SETFA POST percentage damage caused to the plant (five-point scale) (Setaria faberi (SETFA)) | SETFA PRE percentage damage caused to the plant (five-point scale) (Setaria faberi (SETFA)) | LOLPE POST percentage damage caused to the plant (five-point scale) (Lolium perenne (LOLPE)) | LOLPE PRE percentage damage caused to the plant (five-point scale) (Lolium perenne (LOLPE))

CC#Cc1cc(Cl)c(C2C(=O)CC3(CCN(C(=O)C(C)(C)C)CC3)CC2=O)c(OC)c1 [Compound A10]
5 (5=80-100%): ECHCG POST percentage damage caused to the plant (five-point scale) [1] | ECHCG PRE percentage damage caused to the plant (five-point scale) [1] | AVEFA POST percentage damage caused to the plant (five-point scale) (Avena fatua (AVEFA)) | AVEFA PRE percentage damage caused to the plant (five-point scale) (Avena fatua (AVEFA)) | ALOMY POST percentage damage caused to the plant (five-point scale) [2] | ALOMY PRE percentage damage caused to the plant (five-point scale) [2] | SETFA POST percentage damage caused to the plant (five-point scale) (Setaria faberi (SETFA)) | SETFA PRE percentage damage caused to the plant (five-point scale) (Setaria faberi (SETFA)) | LOLPE POST percentage damage caused to the plant (five-point scale) (Lolium perenne (LOLPE)) | LOLPE PRE percentage damage caused to the plant (five-point scale) (Lolium perenne (LOLPE))

Cc1cc(-c2ccc(F)cn2)cc(Cl)c1C1C(=O)CC2(CCN(C(=O)C3CC3)CC2)CC1=O [Compound A58]
5 (5=80-100%): ECHCG POST percentage damage caused to the plant (five-point scale) [1] | ECHCG PRE percentage damage caused to the plant (five-point scale) [1] | AVEFA POST percentage damage caused to the plant (five-point scale) (Avena fatua (AVEFA)) | AVEFA PRE percentage damage caused to the plant (five-point scale) (Avena fatua (AVEFA)) | ALOMY POST percentage damage caused to the plant (five-point scale) [2] | ALOMY PRE percentage damage caused to the plant (five-point scale) [2] | SETFA POST percentage damage caused to the plant (five-point scale) (Setaria faberi (SETFA)) | SETFA PRE percentage damage caused to the plant (five-point scale) (Setaria faberi (SETFA)) | LOLPE POST percentage damage caused to the plant (five-point scale) (Lolium perenne (LOLPE)) | LOLPE PRE percentage damage caused to the plant (five-point scale) (Lolium perenne (LOLPE))

CC#Cc1cc(C)c(C2C(=O)CC3(CCN(C(C)=O)CC3)CC2=O)c(Cl)c1 [Compound A55]
5 (5=80-100%): ECHCG POST percentage damage caused to the plant (five-point scale) [1] | ECHCG PRE percentage damage caused to the plant (five-point scale) [1] | AVEFA POST percentage damage caused to the plant (five-point scale) (Avena fatua (AVEFA)) | AVEFA PRE percentage damage caused to the plant (five-point scale) (Avena fatua (AVEFA)) | ALOMY POST percentage damage caused to the plant (five-point scale) [2] | ALOMY PRE percentage damage caused to the plant (five-point scale) [2] | SETFA POST percentage damage caused to the plant (five-point scale) (Setaria faberi (SETFA)) | SETFA PRE percentage damage caused to the plant (five-point scale) (Setaria faberi (SETFA)) | LOLPE POST percentage damage caused to the plant (five-point scale) (Lolium perenne (LOLPE)) | LOLPE PRE percentage damage caused to the plant (five-point scale) (Lolium perenne (LOLPE))

CCc1cc(-c2ccc(C#N)cn2)cc(Cl)c1C1C(=O)CC2(CCN(C(=O)C3CC3)CC2)CC1=O [Compound A53]
5 (5=80-100%): ECHCG POST percentage damage caused to the plant (five-point scale) [1] | ECHCG PRE percentage damage caused to the plant (five-point scale) [1] | AVEFA POST percentage damage caused to the plant (five-point scale) (Avena fatua (AVEFA)) | AVEFA PRE percentage damage caused to the plant (five-point scale) (Avena fatua (AVEFA)) | ALOMY POST percentage damage caused to the plant (five-point scale) [2] | ALOMY PRE percentage damage caused to the plant (five-point scale) [2] | SETFA POST percentage damage caused to the plant (five-point scale) (Setaria faberi (SETFA)) | SETFA PRE percentage damage caused to the plant (five-point scale) (Setaria faberi (SETFA)) | LOLPE POST percentage damage caused to the plant (five-point scale) (Lolium perenne (LOLPE)) | LOLPE PRE percentage damage caused to the plant (five-point scale) (Lolium perenne (LOLPE))
